What was measured:
Type in all cases: functional
Nakaseomyces glabratus [1] = assay: Antifungal activity against 85 days cultured Candida glabrata isolated from HSCT recipient with acute or chronic GVHD mouth receiving antifungal therapy for 143 days after 116 days of prophylaxis by broth microdilution method
Nakaseomyces glabratus [2] = assay: Antifungal activity against Candida glabrata isolated from neutropenic subject 1187 with AML or MDS stool receiving antifungal drug after 22 days prophylaxis by broth microdilution method; details: 528 h
Pichia kudriavzevii [3] = assay: Antifungal activity against Candida krusei isolated from neutropenic subjects with AML or MDS receiving fluconazole assessed as maximum MIC by broth microdilution method
Candida albicans [4] = assay: Antifungal activity against Candida albicans isolated from neutropenic subjects with AML or MDS prior to initiation of posaconazole therapy by broth microdilution method
Pichia kudriavzevii [5] = assay: Antifungal activity against Candida krusei isolated from HSCT recipients with acute or chronic GVHD receiving fluconazole by broth microdilution method
Nakaseomyces glabratus [6] = assay: Antifungal activity against Candida glabrata isolated from neutropenic subjects with AML or MDS prior to initiation of posaconazole therapy by broth microdilution method
Pichia kudriavzevii [7] = assay: Antifungal activity against Candida krusei isolated from HSCT recipients with acute or chronic GVHD prior to initiation of fluconazole therapy assessed as maximum MIC by broth microdilution method
Nakaseomyces glabratus [8] = assay: Antifungal activity against Candida glabrata isolated from neutropenic subjects with AML or MDS prior to initiation of fluconazole therapy by broth microdilution method
Nakaseomyces glabratus [9] = assay: Antifungal activity against 35 days cultured Candida glabrata isolated from HSCT recipient with acute or chronic GVHD mouth receiving antifungal therapy for 165 days after 138 days of prophylaxis by broth microdilution method
Nakaseomyces glabratus [10] = assay: Antifungal activity against Candida glabrata isolated from HSCT recipients with acute or chronic GVHD prior to initiation of fluconazole therapy assessed as maximum MIC by broth microdilution method
Candida albicans [11] = assay: Antifungal activity against Candida albicans isolated from HSCT recipients with acute or chronic GVHD receiving fluconazole assessed as maximum MIC by broth microdilution method
Candida albicans [12] = assay: Antifungal activity against Candida albicans isolated from HSCT recipient 262 with acute or chronic GVHD mouth after 115 days prophylaxis by broth microdilution method
Nakaseomyces glabratus [13] = assay: Antifungal activity against Candida glabrata isolated from neutropenic subject 1187 with AML or MDS stool after 22 days prophylaxis by broth microdilution method; details: 528 h
Nakaseomyces glabratus [14] = assay: Antifungal activity against Candida glabrata isolated from HSCT recipients with acute or chronic GVHD prior to initiation of posaconazole therapy by broth microdilution method
Nakaseomyces glabratus [15] = assay: Antifungal activity against Candida glabrata isolated from neutropenic subjects with AML or MDS receiving fluconazole by broth microdilution method
Saccharomyces cerevisiae [16] = assay: Antifungal activity against Saccharomyces cerevisiae isolated from HSCT recipient 513 with acute or chronic GVHD mouth after 112 days prophylaxis by broth microdilution method
Candida albicans [17] = assay: Antifungal activity against Candida albicans isolated from HSCT recipients with acute or chronic GVHD receiving fluconazole by broth microdilution method
Pichia kudriavzevii [18] = assay: Antifungal activity against 19 days cultured Candida krusei isolated from invasive fungal infected subject blood receiving antifungal therapy for 19 days after 6 days of prophylaxis by broth microdilution method
Nakaseomyces glabratus [19] = assay: Antifungal activity against Candida glabrata isolated from neutropenic subject 1102 with AML or MDS stool after 26 days prophylaxis by broth microdilution method; details: 624 h
Nakaseomyces glabratus [20] = assay: Antifungal activity against Candida glabrata isolated from HSCT recipient 002 with acute or chronic GVHD mouth receiving antifungal drug after 116 days prophylaxis by broth microdilution method
Nakaseomyces glabratus [21] = assay: Antifungal activity against Candida glabrata isolated from HSCT recipient 002 with acute or chronic GVHD mouth after 116 days prophylaxis by broth microdilution method
Nakaseomyces glabratus [22] = assay: Antifungal activity against Candida glabrata isolated from HSCT recipient 474 with acute or chronic GVHD mouth receiving antifungal drug after 124 days prophylaxis by broth microdilution method
Nakaseomyces glabratus [23] = assay: Antifungal activity against Candida glabrata isolated from HSCT recipient 270 with acute or chronic GVHD mouth receiving antifungal drug after 108 days prophylaxis by broth microdilution method
Pichia kudriavzevii [24] = assay: Antifungal activity against 6 days cultured Candida krusei isolated from neutropenic subject with AML or MDS pharynx receiving antifungal therapy for 19 days after 6 days of prophylaxis by broth microdilution method
Candida albicans [25] = assay: Antifungal activity against Candida albicans isolated from HSCT recipients with acute or chronic GVHD prior to initiation of fluconazole therapy assessed as maximum MIC by broth microdilution method
Nakaseomyces glabratus [26] = assay: Antifungal activity against 31 days cultured Candida glabrata isolated from HSCT recipient with acute or chronic GVHD mouth receiving antifungal therapy for 31 days after 28 days of prophylaxis by broth microdilution method
Candida albicans [27] = assay: Antifungal activity against Candida albicans isolated from neutropenic subjects with AML or MDS receiving posaconazole assessed as maximum MIC by broth microdilution method
Nakaseomyces glabratus [28] = assay: Antifungal activity against Candida glabrata isolated from neutropenic subjects with AML or MDS receiving posaconazole by broth microdilution method
Nakaseomyces glabratus [29] = assay: Antifungal activity against 29 days cultured Candida glabrata isolated from neutropenic subject with AML or MDS stool after 48 days of prophylaxis by broth microdilution method
Nakaseomyces glabratus [30] = assay: Antifungal activity against Candida glabrata isolated from HSCT recipient 807 with acute or chronic GVHD mouth after 114 days prophylaxis by broth microdilution method
Saccharomyces cerevisiae [31] = assay: Antifungal activity against Saccharomyces cerevisiae isolated from HSCT recipient 513 with acute or chronic GVHD mouth receiving antifungal drug after 112 days prophylaxis by broth microdilution method
Pichia kudriavzevii [32] = assay: Antifungal activity against Candida krusei isolated from HSCT recipients with acute or chronic GVHD prior to initiation of posaconazole therapy assessed as maximum MIC by broth microdilution method
Nakaseomyces glabratus [33] = assay: Antifungal activity against 7 days cultured Candida glabrata isolated from neutropenic subject with AML or MDS stool receiving antifungal therapy for 37 days after 9 days of prophylaxis by broth microdilution method
Pichia kudriavzevii [34] = assay: Antifungal activity against 16 days cultured Candida krusei isolated from neutropenic subject with AML or MDS pharynx receiving antifungal therapy for 19 days after 6 days of prophylaxis by broth microdilution method
Nakaseomyces glabratus [35] = assay: Antifungal activity against -2 days cultured Candida glabrata isolated from HSCT recipient with acute or chronic GVHD mouth receiving antifungal therapy for 168 days after 113 days of prophylaxis by broth microdilution method
Nakaseomyces glabratus [36] = assay: Antifungal activity against 29 days cultured Candida glabrata isolated from neutropenic subject with AML or MDS pharynx after 48 days of prophylaxis by broth microdilution method
Nakaseomyces glabratus [37] = assay: Antifungal activity against 14 days cultured Candida glabrata isolated from HSCT recipient with acute or chronic GVHD mouth after 17 days of prophylaxis by broth microdilution method
Nakaseomyces glabratus [38] = assay: Antifungal activity against Candida glabrata isolated from neutropenic subject 1331 with AML or MDS pharynx after 21 days prophylaxis by broth microdilution method; details: 504 h
Nakaseomyces glabratus [39] = assay: Antifungal activity against 1 day cultured Candida glabrata isolated from HSCT recipient with acute or chronic GVHD mouth receiving antifungal therapy for 143 days after 116 days of prophylaxis by broth microdilution method

CC[C@@H]([C@H](C)O)n1ncn(-c2ccc(N3CCN(c4ccc(OC[C@@H]5CO[C@@](Cn6cncn6)(c6ccc(F)cc6F)C5)cc4)CC3)cc2)c1=O [POSACONAZOLE]
0.25 µg/mL: MIC (Pichia kudriavzevii [3]) | MIC50 (Pichia kudriavzevii [5]) | MIC50 (Nakaseomyces glabratus [6]) | MIC (Nakaseomyces glabratus [19]) | MIC (Nakaseomyces glabratus [30]) | MIC (Pichia kudriavzevii [34])
0.03 µg/mL: MIC50 (Candida albicans [17]) | MIC (Candida albicans [27])
2 µg/mL: MIC90 (Nakaseomyces glabratus [6]) | MIC90 (Nakaseomyces glabratus [8]) | MIC (Nakaseomyces glabratus [38])
0.5 µg/mL: MIC90 (Pichia kudriavzevii [5]) | MIC (Pichia kudriavzevii [7]) | MIC50 (Nakaseomyces glabratus [8]) | MIC (Nakaseomyces glabratus [13]) | MIC50 (Nakaseomyces glabratus [14]) | MIC50 (Nakaseomyces glabratus [15]) | MIC (Nakaseomyces glabratus [21]) | MIC50 (Nakaseomyces glabratus [28]) | MIC (Pichia kudriavzevii [32]) | MIC (Nakaseomyces glabratus [39])
0.015 µg/mL: MIC50 (Candida albicans [4]) | MIC90 (Candida albicans [4])
< 0.015 µg/mL: MIC (Candida albicans [12])
0.06 µg/mL: MIC (Pichia kudriavzevii [18]) | MIC (Pichia kudriavzevii [24]) | MIC (Candida albicans [25])
8 µg/mL: MIC (Nakaseomyces glabratus [36]) | MIC (Nakaseomyces glabratus [37])
< 0.5 µg/mL: MIC (Nakaseomyces glabratus [26])
4 µg/mL: MIC (Nakaseomyces glabratus [1]) | MIC (Nakaseomyces glabratus [2]) | MIC (Nakaseomyces glabratus [9]) | MIC90 (Nakaseomyces glabratus [14]) | MIC (Nakaseomyces glabratus [20]) | MIC (Nakaseomyces glabratus [22]) | MIC90 (Nakaseomyces glabratus [28]) | MIC (Saccharomyces cerevisiae [31])
1 µg/mL: MIC90 (Nakaseomyces glabratus [15]) | MIC (Saccharomyces cerevisiae [16]) | MIC (Nakaseomyces glabratus [23]) | MIC (Nakaseomyces glabratus [29]) | MIC (Nakaseomyces glabratus [33]) | MIC (Nakaseomyces glabratus [35])
16 µg/mL: MIC (Nakaseomyces glabratus [10]) | MIC (Candida albicans [11]) | MIC90 (Candida albicans [17])

OC(Cn1cncn1)(Cn1cncn1)c1ccc(F)cc1F [FLUCONAZOLE]
< 4 µg/mL: MIC (Nakaseomyces glabratus [26])
8 µg/mL: MIC50 (Nakaseomyces glabratus [8]) | MIC (Saccharomyces cerevisiae [16]) | MIC (Nakaseomyces glabratus [23]) | MIC50 (Nakaseomyces glabratus [28]) | MIC (Nakaseomyces glabratus [29]) | MIC (Nakaseomyces glabratus [33]) | MIC (Nakaseomyces glabratus [38])
> 64 µg/mL: MIC (Nakaseomyces glabratus [36]) | MIC (Nakaseomyces glabratus [37])
0.25 µg/mL: MIC50 (Candida albicans [4]) | MIC90 (Candida albicans [4]) | MIC (Candida albicans [12]) | MIC (Candida albicans [27])
4 µg/mL: MIC50 (Nakaseomyces glabratus [6]) | MIC50 (Nakaseomyces glabratus [15]) | MIC (Nakaseomyces glabratus [19])
64 µg/mL: MIC (Nakaseomyces glabratus [1]) | MIC (Pichia kudriavzevii [3]) | MIC50 (Pichia kudriavzevii [5]) | MIC90 (Pichia kudriavzevii [5]) | MIC (Pichia kudriavzevii [7]) | MIC (Nakaseomyces glabratus [9]) | MIC (Nakaseomyces glabratus [10]) | MIC (Candida albicans [11]) | MIC90 (Nakaseomyces glabratus [14]) | MIC90 (Candida albicans [17]) | MIC (Nakaseomyces glabratus [20]) | MIC (Nakaseomyces glabratus [22]) | MIC90 (Nakaseomyces glabratus [28]) | MIC (Pichia kudriavzevii [32]) | MIC (Pichia kudriavzevii [34]) | MIC (Nakaseomyces glabratus [35])
32 µg/mL: MIC (Nakaseomyces glabratus [2]) | MIC (Pichia kudriavzevii [18]) | MIC (Pichia kudriavzevii [24]) | MIC (Saccharomyces cerevisiae [31])
1 µg/mL: MIC50 (Candida albicans [17])
16 µg/mL: MIC90 (Nakaseomyces glabratus [6]) | MIC90 (Nakaseomyces glabratus [8]) | MIC (Nakaseomyces glabratus [13]) | MIC50 (Nakaseomyces glabratus [14]) | MIC90 (Nakaseomyces glabratus [15]) | MIC (Nakaseomyces glabratus [21]) | MIC (Candida albicans [25]) | MIC (Nakaseomyces glabratus [30]) | MIC (Nakaseomyces glabratus [39])

CCC(C)n1ncn(-c2ccc(N3CCN(c4ccc(OCC5COC(Cn6cncn6)(c6ccc(Cl)cc6Cl)O5)cc4)CC3)cc2)c1=O (stereo unspecified) [ITRACONAZOLE]
32 µg/mL: MIC (Nakaseomyces glabratus [10])
0.25 µg/mL: MIC50 (Nakaseomyces glabratus [6]) | MIC (Pichia kudriavzevii [18])
< 0.015 µg/mL: MIC (Candida albicans [12])
0.5 µg/mL: MIC50 (Pichia kudriavzevii [5]) | MIC50 (Nakaseomyces glabratus [8]) | MIC50 (Nakaseomyces glabratus [15]) | MIC (Saccharomyces cerevisiae [16]) | MIC (Pichia kudriavzevii [24]) | MIC50 (Nakaseomyces glabratus [28]) | MIC (Nakaseomyces glabratus [30]) | MIC (Pichia kudriavzevii [34])
> 8 µg/mL: MIC (Nakaseomyces glabratus [20]) | MIC (Nakaseomyces glabratus [37])
2 µg/mL: MIC90 (Nakaseomyces glabratus [8]) | MIC90 (Nakaseomyces glabratus [15])
< 1 µg/mL: MIC (Nakaseomyces glabratus [26])
0.06 µg/mL: MIC (Candida albicans [25])
1 µg/mL: MIC (Pichia kudriavzevii [3]) | MIC (Pichia kudriavzevii [7]) | MIC (Nakaseomyces glabratus [13]) | MIC50 (Nakaseomyces glabratus [14]) | MIC (Nakaseomyces glabratus [19]) | MIC (Nakaseomyces glabratus [21]) | MIC (Nakaseomyces glabratus [23]) | MIC (Nakaseomyces glabratus [29]) | MIC (Nakaseomyces glabratus [33]) | MIC (Nakaseomyces glabratus [35]) | MIC (Nakaseomyces glabratus [38]) | MIC (Nakaseomyces glabratus [39])
0.03 µg/mL: MIC90 (Candida albicans [4]) | MIC50 (Candida albicans [17]) | MIC (Candida albicans [27])
0.015 µg/mL: MIC50 (Candida albicans [4])
8 µg/mL: MIC (Nakaseomyces glabratus [1]) | MIC90 (Nakaseomyces glabratus [6]) | MIC (Nakaseomyces glabratus [9]) | MIC90 (Nakaseomyces glabratus [14]) | MIC (Nakaseomyces glabratus [22]) | MIC90 (Nakaseomyces glabratus [28]) | MIC (Nakaseomyces glabratus [36])
16 µg/mL: MIC90 (Pichia kudriavzevii [5]) | MIC (Candida albicans [11]) | MIC90 (Candida albicans [17]) | MIC (Pichia kudriavzevii [32])
4 µg/mL: MIC (Nakaseomyces glabratus [2]) | MIC (Saccharomyces cerevisiae [31])

Source: ChEMBL document CHEMBL1687752, “Impact of antifungal prophylaxis on colonization and azole susceptibility of Candida species” (2009)
